Assays:
[1] = single time point biodistribution study in mice (brain, liver, serum sobetirome 30 minutes after ip administration, LC-MS/MS); format: in vivo; settings: for CNS distribution of sobetirome (in words): ip administration of prodrug, versus sobetirome; for brain sobetirome levels compared to equimolar systemic injection of sobetirome / liver sobetirome levels compared to direct sobetirome injection / serum sobetirome levels compared to direct sobetirome injection: sobetirome measured
Method: A biodistribution study in mice was performed on each prodrug to determine the brain, liver, and serum levels of sobetirome following a systemic (intraperitoneal) administration. The mice received an equimolar dose (1.5 μmol/kg) of prodrug and one cohort received the same dose of sobetirome as a control. Tissue and blood were collected 30 minutes post-injection and the concentration of sobetirome was determined using an LC-MS/MS. […] The brain/liver sobetirome ratio was increased compared to sobetirome injection by 5- and 10-fold for 11 and 15, respectively (FIG. 1C)
(§1) Animal Studies: Experimental protocols were in compliance with the National Institutes of Health Guide for the Care and Use of Laboratory Animals and approved by the Oregon Health & Science University Institutional Animal Care & Use Committee. Wild type male C57Bl/6 mice, aged 8-10 weeks, were housed in a climate controlled room with a 12 hour light-dark cycle with ad libitum access to food and water. Mice were injected once intraperitoneally (IP) with sobetirome and prodrugs at 3.05 μmol/kg. Euthanasia was performed on three mice per time points at the following times (0.15 h, 0.5 h, 1 h, 2 h, 4 h, and 8 h) and the tissues and blood were harvested. Tissues were immediately frozen and blood was kept on ice for a minimum of 30 minutes and then spun down at 7,500×G for 15 minutes. Serum (100 uL) was collected and was stored with tissues at −80° C. until samples were processed.
(§2) Serum Processing: The serum samples were warmed to room temperature and 10 μL of 2.99 μM internal standard (D6-Sobetirome) was added to them. Acetonitrile (500 μL) was added and the sample was vortexed for 20 seconds. The sample was then centrifuged at 10,000×G for 15 minutes at 4° C. Next, 90% of the upper supernatant was transferred to a glass test tube and concentrated using a speedvac for 1.5 hours at 45° C. The dried sample was then dissolved in 400 μL of 50:50 ACN:H2O and vortexed for 20 seconds. The resulting mixture was transferred to an Eppendorf and centrifuged at 10,000×G for 15 minutes. The supernatant was filtered with 0.22 μM centrifugal filters and submitted for LC-MS/MS analysis. The standard curve was made with 100 μL of serum from an 8-10 week old mouse not injected with Sobetirome or prodrug. The processing was performed exactly the same except after filtering the sample was split amongst 6 vials. To 5 out of the 6 vials was added Sobetirome to make final concentrations in matrix of (0.1 pg/μL, 1 pg/μL, 10 pg/μL, 100 pg/μL, and 1000 pg/μL).
(§3) Brain Processing: The brain samples were warmed to room temperature and transferred to a homogenizer tube with 5 GoldSpec ⅛ chrome steel balls (Applied Industrial Technologies). The resulting tube was weighed and then 1 mL of H2O was added, followed by 10 μL of 2.99 μM internal standard (D6-sobetirome). The tube was homogenized with a Bead Bug® for 30 seconds and then transferred to a Falcon tube containing 3 mL of ACN. ACN (1 mL) was used to wash homogenizer tube and the solution was transferred back to the Falcon tube. The sample was then processed using the same method for the serum processing except the sample was concentrated in a glass tube using a speedvac for 4 hours at 45° C.
(§4) Liver Processing: The liver samples were warmed to room temperature and transferred to a homogenizer tube with 5 GoldSpec ⅛ chrome steel balls (Applied Industrial Technologies). The resulting tube was weighed and then 1 mL of H2O was added, followed by 10 μL of 2.99 μM internal standard (D6-Sobetirome). The tube was then homogenized with a Bead Bug for 30 seconds. A small sample (100 μL) was then taken from the homogenized mixture and processed. This was done because the liver levels found in some samples were too high for the LC-MS/MS instrument. The samples were then processed using the serum processing method.

[2] = 8-hour time course distribution study in mice (sobetirome in brain, liver, serum after ip administration); format: in vivo; settings: for AUC0-->t of sobetirome: ip 1.5 μmol/kg, 8 hour time course
From the text: (§5) The single time point pilot study was followed up for 11 and 15 vs. sobetirome with an 8-hour time course distribution study in mice. […] The sobetirome AUC, Cmax, and Tmax values in brain, liver and serum resulting from systemic administration of sobetirome, prodrug 11, and prodrug 15 are shown in Table 1 and the curves used to obtain these values are shown in FIGS. 2A, 2B and 2C.
as §1, with “Mice were injected once intraperitoneally (IP) with sobetirome and prodrugs at 3.05 μmol/kg.” left out
as §2, §3, §4

[3] = pharmacokinetic study of sobetirome in mice (t1/2); settings: mouse, in vivo
From the text: as §5

[4] = ip 1.5 μmol/kg, 30 minutes post-injection
[5] = male, C57Bl/6, mouse, in vivo, ip

Cc1cc(OCC(=O)OCC[N+](C)(C)C)cc(C)c1Cc1ccc(O)c(C(C)C)c1.[Br-] [Compound 8, 2-(trimethylamino)ethyl 2-(4-{[4-hydroxy-3-(propan-2-yl)phenyl]methyl}-3,5-dimethylphenoxy)acetate hydrobromide]
CNS distribution of sobetirome (in words) [1]: did not improve CNS distribution of sobetirome

Cc1cc(OCC(=O)OCCN2CCOCC2)cc(C)c1Cc1ccc(O)c(C(C)C)c1 [Compound 9, 2-(morpholin-4-yl)ethyl 2-(4-{[4-hydroxy-3-(propan-2-yl)phenyl]methyl}-3,5-dimethylphenoxy)acetate]
brain/serum ratio of sobetirome (in words) [1, 4]: did not significantly increase
brain sobetirome levels compared to equimolar systemic injection of sobetirome [1, 4]: did not significantly increase

Cc1cc(OCC(=O)OCCN)cc(C)c1Cc1ccc(O)c(C(C)C)c1.Cl [Compound 11, GC1-ethanolamine]
sobetirome exposure in brain compared to direct sobetirome injection ([2]; mice, full time course): increased sobetirome exposure
sobetirome exposure in liver compared to direct sobetirome injection ([2]; mice, full time course): decreased sobetirome exposure
sobetirome exposure in serum compared to direct sobetirome injection ([2]; mice, full time course): decreased sobetirome exposure
brain sobetirome levels compared to equimolar systemic injection of sobetirome [1, 4]: significant brain sobetirome level increases
liver sobetirome levels compared to direct sobetirome injection [1, 4]: significantly lower
serum sobetirome levels compared to direct sobetirome injection [1, 4]: significantly lower
CNS distribution of sobetirome (in words) [1]: improved CNS distribution

Cc1cc(OCC(=O)OC2CNC2)cc(C)c1Cc1ccc(O)c(C(C)C)c1 [Compound 15, azetidin-3-yl 2-(4-{[4-hydroxy-3-(propan-2-yl)phenyl]methyl}-3,5-dimethylphenoxy)acetate]
Sobetirome Distribution AUCbrain/AUCliver [2, 5]: 0.20
Sobetirome Distribution AUCbrain/AUCserum [2, 5]: 1.3
brain/serum ratio of sobetirome based on AUC [2, 5]: 1.31
sobetirome exposure in brain compared to direct sobetirome injection ([2]; mouse, in vivo): increased sobetirome exposure
sobetirome exposure in liver compared to direct sobetirome injection ([2]; mouse, in vivo): decreased sobetirome exposure
sobetirome exposure in serum compared to direct sobetirome injection ([2]; mouse, in vivo): decreased sobetirome exposure
CNS distribution properties compared to 11 ([2]; mouse, in vivo, ip): superior CNS distribution properties
increase in sobetirome AUC(brain)/AUC(liver) relative to sobetirome ([2]; mouse, in vivo, ip): five-fold increase
time to reach Cmax ([2]; mouse, in vivo, ip): 1 h
brain sobetirome levels compared to equimolar systemic injection of sobetirome [1, 4]: significant brain sobetirome level increases
liver sobetirome levels compared to direct sobetirome injection [1, 4]: significantly lower
serum sobetirome levels compared to direct sobetirome injection [1, 4]: significantly lower
CNS distribution of sobetirome (in words) [1]: improved CNS distribution

Cc1cc(OCC(=O)O)cc(C)c1Cc1ccc(O)c(C(C)C)c1 [Sobetirome]
half-life [3]: 1.5 h
AUC0-->t of sobetirome ([2]; mouse brain): 10.8 ng·h/g
AUC0-->t of sobetirome ([2]; mouse liver): 293 ng·h/g
AUC0-->t of sobetirome ([2]; mouse serum): 68.2 ng·h/g

— patent publication US9701650B2, “Derivatives of sobetirome” (OREGON HEALTH & SCIENCE UNIVERSITY, priority 2015, dated 2017)
